A short description of series [1]: Pharmacokinetic (PK) study: blood from cardiac puncture. In kind it is in vivo, mice. The conditions noted are these: IP 100 mg/kg, estimated. The method, then:
Pharmacokinetic (PK) Study: Blood from Cardiac Puncture • Method: • Drug-Treatment: • Mice: CD-1 female mice (8-10 weeks, 25-30 g) • mice were injected (IP) with Test Drug (10 mg/ml, in 10% DMSO-20% Tween-80 in PBS) at a dose of 100 mg/kg. • At 1 and 2 hours after drug treatments, individual animals were anesthetized with isoflurane. • blood was obtained by cardiac puncture (between the chest-ribs bones). Animals were then euthanized by cervical dislocation. • Plasma Isolation: • Blood (0.6-0.8 ml) was centrifuged (2000 g, 15 minutes). Plasma was collected from the top layer. • 1 volume of plasma was mixed with 3 volume of acetonitrile/0.005% TFA. Mixture was stored in −20° C. for 6 minutes. • Sample was centrifuged (16000 g, 10 minutes). Supernatant was subjected to HPLC analysis. • HPLC Analysis Conditions: • Column: C18 μBondapak • Solvent: 60% acetonitrile/0.005% TFA (Trifluoroacetic acid) • Gradient: isocratic • Flow rate and run time: 1 ml/min for 30 minutes • Detection wavelength: 207 nm • O.D. range: 0.05 full scale • Calculation: • Standard cures of Test Drug is constructed (Area/3000K=1 ug Test Drug) • Area of Test Drug peak from Sample is Recorded • Amount of Test Drug was calculated according to standard cures.

Series [2] has as its system HCT116. The experiment in a line: MTT assay, colon (HCT116). The series is classed as cell-based. The method, then: (§1) Cells. HTB-9 (bladder), HeLa-S3 (cervix), DU145 (prostate), H460 (lung), MCF-7 (breast), K562 (leukemia), HCT116 (colon), HepG2 (liver), U2OS (bone), T98G (brain), SK-MEL-5 (Skin) and OVCAR 3, ES2 (ovary), Pancreas (Capan), Mouth (KB), Kidney (A498).
(§2) MTT Assay. The procedure for MTT assay followed the method described by Carmichael et al. (1987) with modifications. The cells were seeded into a 96-well plate at for 24 hours before drug-treatment. The cells were then exposed to the drugs for 48, 72, or 96 hours. After the drug-treatment, MTT (0.5 mg/mL) was added to cultures and incubated for an hour. The formazan (product of the reduction of tetrazolium by viable cells) formed and was dissolved with DMSO and the O.D. at 490 nm, and was measured by an ELISA reader. The MTT level of the cells before drug-treatment was also measured (T0). The % cell-growth (% G) is calculated as: % G=(TD−T0/TC−T0)×100(1), where TC or TD represents O.D. readings of control or drug-treated cells.
(§3) When T0>TD, then the cytotoxicity (LC) expressed as % of the control is calculated as: % LC=(TD−T0/T0)×100(2).
(In general: Formazan colour is commonly taken as a measure of viable cells.)

For series [3], the system named is K562. Nature of the series: MTT assay, leukemia (K562). The series is classed as cell-based, human. The method, then: as §1, §2, §3

Take `CC=C(C)C(=O)OCC1(C)C(O)CCC2(C)C1CCC1(C)C2CC=C2C3CC(C)(C)C(O)C(O)C3(COC(=O)C(C)=CC)C(O)CC21C` (stereo not drawn) [Tig-R, 24,28-O-Tigloyl-3β,16α,21β,22α,24β,28-hexahydroxyolean-12-ene]: the half-life entry in series [1] is given as “about one”. Also, the “IC50 of colon (HCT116)” value in series [2] was determined as 5.2 µg/mL. In addition, in series [3], the “IC50 of leukemia (K562)” value was found to be 2 µg/mL.

Values taken from patent publication US20230159436A1, “APPLICATIONS OF AMIDE ANALOGS OF TRITERPENES IN CURES OF CANCER AND OTHER DISEASES” (Pacific Arrow Limited, priority 2021, published 2023).
